Among the data in ChEMBL document CHEMBL1201862, “PubChem BioAssay data set” (2004) are AC50, EC50 and IC50 values, retold here.

One series has as its system INS1. The series is described as follows: beta cell apoptosis inhibitors, cytokine rescue, dose response, luminescence, retest (AID 449756).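 Note: cell death triggered by IL-1 beta plus TNF-alpha plus IFN-gamma mixture; protective hits raise ATP signal compared with cytokine alone wells.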 Format: functional, cell-based. The following applies: Rattus norvegicus.
Another series addresses Cytochrome P450 2C19 (Homo sapiens, UniProt P33261). The series is described as follows: Cytochrome panel assay with activity outcomes. Panel member name: p450-cyp2c19 Compounds with AC50 equal or less than 10 uM are considered active. It is filed as functional.
For a further series, the target named is Cytochrome P450 2D6 (Homo sapiens, UniProt P10635).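 Note: CYP2D6 member of a cytochrome P450 panel assay.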
Sequence of Cytochrome P450 2D6 (P10635 whole entry): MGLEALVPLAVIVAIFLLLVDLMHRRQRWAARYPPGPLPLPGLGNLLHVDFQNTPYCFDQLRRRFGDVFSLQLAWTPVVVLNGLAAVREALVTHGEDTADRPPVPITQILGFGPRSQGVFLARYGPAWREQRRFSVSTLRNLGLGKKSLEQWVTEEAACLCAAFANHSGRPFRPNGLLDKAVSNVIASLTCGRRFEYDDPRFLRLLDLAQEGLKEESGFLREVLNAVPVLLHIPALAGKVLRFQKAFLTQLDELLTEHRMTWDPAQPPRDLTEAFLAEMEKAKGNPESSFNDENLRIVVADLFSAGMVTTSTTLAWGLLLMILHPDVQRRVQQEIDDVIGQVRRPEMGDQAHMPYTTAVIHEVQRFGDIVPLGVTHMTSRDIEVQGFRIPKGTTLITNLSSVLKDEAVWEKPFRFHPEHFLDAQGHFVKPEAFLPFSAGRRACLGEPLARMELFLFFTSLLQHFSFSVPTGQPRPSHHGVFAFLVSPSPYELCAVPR
Series [1] can be described thus: inhibitors of intracellular T. cruzi replication, confirmation, NIH3T3 host cells, beta-gal luminescence (AID 2044).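 Note: intracellular parasites grown in NIH/3T3 mouse fibroblasts as host cells; luminescent beta-galactosidase reporter signal from transgenic T. cruzi replicating inside host cells; inhibitors lower the luminescence signal.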 It is filed as functional, cell-based.
The nature of series [2]: cytotoxicity toward NIH3T3 fibroblasts, dose response, counter-screen, cell-based, ATP luminescence, mouse fibroblasts (AID 2010).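 Note: cells exposed to compound for about 90 hours before reading.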 Format: functional.
Series [3] deals with T1, Rac GTPase-activating protein 1 (Homo sapiens, UniProt Q9H0H5).
T1 sequence (Q9H0H5 whole entry): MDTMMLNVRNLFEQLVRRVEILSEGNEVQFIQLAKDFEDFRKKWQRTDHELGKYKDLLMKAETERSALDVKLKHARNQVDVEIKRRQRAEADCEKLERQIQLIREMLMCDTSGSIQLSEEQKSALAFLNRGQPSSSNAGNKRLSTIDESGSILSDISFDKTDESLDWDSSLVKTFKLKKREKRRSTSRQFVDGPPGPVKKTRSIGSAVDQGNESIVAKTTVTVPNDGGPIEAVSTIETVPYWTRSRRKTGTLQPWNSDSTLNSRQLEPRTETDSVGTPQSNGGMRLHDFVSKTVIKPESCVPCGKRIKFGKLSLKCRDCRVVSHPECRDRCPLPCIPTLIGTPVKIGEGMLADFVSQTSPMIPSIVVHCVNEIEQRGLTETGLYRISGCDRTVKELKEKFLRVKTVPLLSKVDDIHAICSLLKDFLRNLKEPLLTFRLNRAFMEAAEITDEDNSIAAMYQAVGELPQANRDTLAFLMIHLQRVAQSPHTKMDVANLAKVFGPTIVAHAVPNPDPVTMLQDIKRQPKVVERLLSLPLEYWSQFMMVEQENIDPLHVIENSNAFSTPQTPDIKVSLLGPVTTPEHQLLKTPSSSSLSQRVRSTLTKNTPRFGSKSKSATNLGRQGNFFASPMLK
The series is described as follows: MgcRacGAP GTPase-activating activity inhibitors, confirmation, biochemical, ADP Hunter fluorescence, primary and confirmatory (AID 624330). It is filed as functional.

The target of the next series is Cytochrome P450 3A4 (Homo sapiens, UniProt P08684).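 Note: CYP3A4 tested as one member of a cytochrome P450 panel screen.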
Sequence of Cytochrome P450 3A4 (P08684 whole entry): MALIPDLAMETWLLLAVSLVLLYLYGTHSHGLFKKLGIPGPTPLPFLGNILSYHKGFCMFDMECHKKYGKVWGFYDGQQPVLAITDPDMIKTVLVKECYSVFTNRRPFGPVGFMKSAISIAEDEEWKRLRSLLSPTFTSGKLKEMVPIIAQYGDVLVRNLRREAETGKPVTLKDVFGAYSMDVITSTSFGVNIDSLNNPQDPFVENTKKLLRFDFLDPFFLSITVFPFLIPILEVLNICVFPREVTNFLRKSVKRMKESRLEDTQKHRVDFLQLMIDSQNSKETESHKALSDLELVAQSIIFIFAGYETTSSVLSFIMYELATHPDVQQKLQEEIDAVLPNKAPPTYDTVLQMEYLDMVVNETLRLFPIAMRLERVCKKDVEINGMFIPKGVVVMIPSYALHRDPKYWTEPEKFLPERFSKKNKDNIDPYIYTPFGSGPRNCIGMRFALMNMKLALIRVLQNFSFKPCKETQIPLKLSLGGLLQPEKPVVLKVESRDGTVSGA
The target in series [4] is T2, Corticotropin-releasing factor receptor 2/Corticotropin-releasing factor-binding protein (Homo sapiens, UniProt P24387+Q13324).
T2 sequence (Q13324 whole entry): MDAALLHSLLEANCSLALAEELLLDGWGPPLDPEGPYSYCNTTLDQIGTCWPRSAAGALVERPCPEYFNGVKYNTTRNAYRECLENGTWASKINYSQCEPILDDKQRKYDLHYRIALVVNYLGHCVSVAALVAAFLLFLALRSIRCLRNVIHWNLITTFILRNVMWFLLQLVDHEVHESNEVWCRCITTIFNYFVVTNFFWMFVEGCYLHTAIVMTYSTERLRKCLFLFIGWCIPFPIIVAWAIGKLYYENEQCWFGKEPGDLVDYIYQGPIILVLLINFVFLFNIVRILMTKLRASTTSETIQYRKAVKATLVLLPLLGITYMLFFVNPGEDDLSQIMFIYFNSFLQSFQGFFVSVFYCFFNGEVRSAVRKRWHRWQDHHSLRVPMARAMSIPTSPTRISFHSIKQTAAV
T2 sequence (P24387 whole entry): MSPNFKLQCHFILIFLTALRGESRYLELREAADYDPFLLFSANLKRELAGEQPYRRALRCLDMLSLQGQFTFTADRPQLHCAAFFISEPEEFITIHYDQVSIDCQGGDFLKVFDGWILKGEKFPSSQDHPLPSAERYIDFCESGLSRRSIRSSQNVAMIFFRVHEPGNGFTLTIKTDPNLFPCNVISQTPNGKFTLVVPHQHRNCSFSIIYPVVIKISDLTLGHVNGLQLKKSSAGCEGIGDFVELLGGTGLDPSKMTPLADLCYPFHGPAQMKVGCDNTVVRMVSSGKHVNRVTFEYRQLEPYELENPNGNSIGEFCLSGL
The series is described as follows: activators of CRF receptor 2 with binding protein – uHTS hits, confirmation (AID 602473). Format: functional. The following applies: read-out: EC50_Mean.

The AC50 is the midpoint of the concentration-response curve, whichever way the signal moves. By IC50 is commonly meant the concentration that inhibits the measured activity by half.

Activity calls are given as the source filed them.

Sequence of Cytochrome P450 2C19 (P33261 whole entry): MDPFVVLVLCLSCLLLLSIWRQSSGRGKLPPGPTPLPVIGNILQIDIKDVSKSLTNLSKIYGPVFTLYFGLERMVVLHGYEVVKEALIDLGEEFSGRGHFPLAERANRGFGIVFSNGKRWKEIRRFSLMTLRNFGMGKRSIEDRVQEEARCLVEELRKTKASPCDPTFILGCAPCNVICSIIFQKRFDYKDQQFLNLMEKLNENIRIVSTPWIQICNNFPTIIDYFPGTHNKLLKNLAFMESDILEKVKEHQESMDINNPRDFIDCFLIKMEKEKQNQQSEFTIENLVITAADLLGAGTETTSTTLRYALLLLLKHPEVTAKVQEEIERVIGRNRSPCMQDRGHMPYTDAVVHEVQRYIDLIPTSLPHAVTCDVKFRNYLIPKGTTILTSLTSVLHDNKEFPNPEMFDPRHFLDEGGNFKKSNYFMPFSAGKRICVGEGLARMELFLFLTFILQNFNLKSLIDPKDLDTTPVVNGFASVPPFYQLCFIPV

For the compound `CC1(C(=O)OCC(=O)N2c3ccccc3Sc3ccccc32)CC1(Cl)Cl` (stereo not drawn), the AC50 in the series with INS1 is 37.4 µM (active).

Turning to `COCCNc1ncnc2ccc(-c3ccc(N(C)C)cc3)cc12`, the AC50 was 25.1 µM (inconclusive) at Cytochrome P450 2C19 (read-out: AC50) and 20 µM (inconclusive) on Cytochrome P450 2D6.

Turning to `O=C1N(Cc2cccc(Cl)c2)C[C@@H]2C[C@@H](c3c[nH]c4ccccc34)N3CCC[C@@]123`, the EC50 is 2 µM (active) in series [1] and > 60 µM (inconclusive) in series [2]. For `CCc1nnc(NC(=O)C2Cc3ccccc3CN2S(=O)(=O)c2ccc(C)cc2)s1` (stereo not drawn), the AC50 on Cytochrome P450 2D6 is 15.8 µM (inconclusive). Regarding `COc1ccc(C(=O)CCC(=O)Nc2cc(Cl)c(O)c(Cl)c2)cc1`, the IC50 in series [3] was 118 µM (active). With `CCCCOC(=O)Nc1nnc(C(C)C)s1`, the figures for the EC50 in series [1] and in series [2] were 1.26 µM (active) and 12.9 µM (active), respectively. In the case of `Clc1ccc(-c2nc3ncccn3c2Nc2ccc3c(c2)OCCO3)cc1`, the AC50 on Cytochrome P450 2C19 (read-out: AC50) is 7.08 µM (inconclusive); at Cytochrome P450 2D6, 31.6 µM (inconclusive).

Turning to `Clc1ccc(CNc2ccc(N3CCN(Cc4ccccc4)CC3)cc2)cc1`, the 50% inhibitory concentration (IC50) in series [3] was 41.4 µM (active). Turning to `Cc1cccc(C(=O)NCCCN(C)CCCNC(=O)c2cccc(C)c2)c1`, the EC50 in series [1] is 0.894 µM (active); in series [2] it was > 60 µM (not active).

As to `C#CCCCO/N=C1/[C@H]2O[C@@H]2[C@@H](O)[C@H]2[C@H]1CCn1c(=O)n([C@@H](CC)c3ccccc3)c(=O)n12`, on Cytochrome P450 3A4, the AC50 was 3.98 µM (inconclusive). Turning to `CCNc1ncc2nc(CCc3ccccc3)c(=O)n(C[C@H]3CCCO3)c2n1`, the AC50 on Cytochrome P450 2C19 (read-out: AC50) was 39.8 µM (inconclusive).

As for `CCOC(=O)C1=C(N)Oc2ccc3ccccc3c2C1c1cccnc1` (stereo not drawn), the figures for the EC50 in series [1] and in series [2] were 0.243 µM (active) and > 60 µM (not active), respectively. Consider `COc1ccc(-c2c[n+](-c3ccc(OC)cc3)c3n2-c2ccccc2CC3)cc1`, for which the half-maximal activity concentration (AC50) with INS1 is 0.786 µM (active). Consider `O=C(Oc1ccc2c(c1)OCO2)c1ccncc1`, for which the IC50 in series [3] was 50.5 µM (active). Regarding `Cc1c(Cl)cccc1NC(=O)CCCn1cnc([N+](=O)[O-])n1`, the figures for the EC50 in series [1] and in series [2] were 0.131 µM (active) and > 60 µM (not active), respectively. For `COc1ccccc1C1NC=C([N+](=O)[O-])C=C1[N+](=O)[O-]` (stereo not drawn), in that order: 1.73 µM (active) and > 60 µM (not active). With `COc1ccccc1CN1CCCC2(CCNCC2)C1`, the AC50 at Cytochrome P450 2D6 was 20 µM (inconclusive).

With `Cc1ccc(C(=O)NC(=S)NNC(=O)c2ccc([N+](=O)[O-])cc2)cc1`, in series [4], the EC50 was 4.2 µM (active). For `Cc1ccc(C(=O)NC(=S)Nc2ccc(CN3CCCCC3)cc2)c(C)c1`, the EC50 in series [1] was 0.98 µM (active); in series [2] it was 15.8 µM (active). `CC(C)(CNc1ccc(S(=O)(=O)C(F)(F)F)cc1[N+](=O)[O-])N1CCOCC1`: the EC50 in series [1] was 2.42 µM (active); in series [2], 4.83 µM (active). As for `O=[As](O)(O)c1ccc2nc3cc([As](=O)(O)O)ccc3nc2c1`, on Cytochrome P450 2C19, the AC50 entry was “inconclusive”. For `Cc1ccc(SCCCn2cnc3ccccc3c2=O)cc1`, the AC50 on Cytochrome P450 2D6 was 1 µM (inconclusive).

As to `FC(F)(F)c1n[nH]c(SCc2ccc(Cl)cc2)n1`, the AC50 at Cytochrome P450 2C19 (read-out: AC50) is 2.51 µM (inconclusive). As for `Cc1ccc(S(=O)(=O)NCCn2cnc([N+](=O)[O-])n2)cc1`, the EC50 is 0.116 µM (active) in series [1] and > 60 µM (not active) in series [2]. As to `CCc1cccc2nc3c(c([Si](C)(C)C)c12)Cn1c-3cccc1=O`, the AC50 at Cytochrome P450 2C19 (read-out: AC50) and at Cytochrome P450 2D6 was 39.8 µM (inconclusive) in each case.

On to `C=CCN1C(c2cccc(C(F)(F)F)c2)=CS/C1=C(/C#N)c1nnc(N2CCOCC2)n1-c1ccccc1`, for which the EC50 in series [4] was > 53 µM (inactive). For the compound `CSCCC(NC(=O)c1ccco1)C(=O)OC(C)C(=O)NC(=O)NC1CCCCC1` (stereo not drawn), in series [4], the EC50 was 0.832 µM (active). As to `CCC(=O)Nc1ccc2c(c1)C(=O)c1ccccc1C2=O`, on Cytochrome P450 2C19 (read-out: AC50), the AC50 is 7.94 µM (inconclusive). The same measure, in the same setting: for `Cc1cc(NC(=O)c2cccc(F)c2)no1` the value was 31.6 µM (inconclusive).

As for `CN1/C(=C\C(S)=Nc2ccccc2)C(C)(C)c2ccccc21`, in the series on INS1, the AC50 is 8.05 µM (active).

As for `COc1cccc([C@@H]2Oc3ccc(OC)cc3/C(=N/O[C@@H](C)CN3CCCCc4nc(C)c(C)cc43)[C@@H]2O)c1`, the results for the AC50 on Cytochrome P450 2C19 (read-out: AC50) and at Cytochrome P450 2D6 were 0.0126 µM (inconclusive) and 3.16 µM (inconclusive), respectively. In the case of `COc1ccc(NC(=O)N2CC3(CCN(C(C)=O)CC3)C2)cc1`, the AC50 on Cytochrome P450 2D6 was 12.6 µM (inconclusive). On the same count and under the same terms, for `O=C1/C(=C\c2ccccn2)SC(=S)N1Nc1ncc(C(F)(F)F)cc1Cl` the value was 17.8 µM (inconclusive). As to `Cc1ccc(S(=O)(=O)/C=C\C#N)cc1`, the concentration at half-maximal activity (AC50) on Cytochrome P450 3A4 was 39.8 µM (inconclusive).

Regarding `COc1cc(CN2CCC(C(=O)NC3CCCC3)CC2)ccc1O`, the concentration for half-maximal inhibition (IC50) in series [3] was 133 µM (active). Consider `CC(C)(C)c1ccc(C(=O)NCCC(=O)NCc2ccco2)cc1`, for which the AC50 at Cytochrome P450 2C19 (read-out: AC50) is 7.94 µM (inconclusive); on Cytochrome P450 2D6, 22.4 µM (inconclusive). Consider `N#C/C(=C(/O)COC(=O)c1ccccc1O)c1nc2ccccc2s1`, for which the EC50 in series [4] was > 53 µM (inactive). For `CCOC(=O)C1CCN(C(=O)C2CCN(S(=O)(=O)N3CCCC3)CC2)CC1`, the AC50 entry on Cytochrome P450 2C19 is “inconclusive”.

Regarding `CCOC(=O)C1(CC2CCCCO2)CCN(Cc2cc3ccccc3[nH]2)CC1` (stereo not drawn), the EC50 in series [4] is 7.87 µM (active). In the case of `CCCNC(=O)c1ccc(N2CCC3(CC2)CC(c2cccc(Br)c2)=NO3)c(NC(=O)c2ccccc2)c1`, the results for the EC50 in series [1] and in series [2] were 2.5 µM (active) and > 60 µM (not active), respectively. With `COc1ccc(NC2CCCN(C(=O)CCN3Cc4ccccc4C3=O)C2)cc1` (stereo not drawn), the concentration for half-maximal inhibition (IC50) in series [3] was 65.1 µM (active). As for `Cn1c(=O)c2nc(S)n(Cc3ccccc3)c2n(C)c1=O`, the half-inhibitory concentration (IC50) in series [3] is 19.5 µM (active).

In the case of `Cc1ccc(N(C(=O)C(F)(F)F)C(C(=O)NC2CCCCC2)c2cccs2)cc1C` (stereo not drawn), the AC50 at Cytochrome P450 2C19 (read-out: AC50) is 0.0355 µM (inconclusive). Turning to `CN1CCc2c(sc(/N=C/c3cccs3)c2C(N)=O)C1`, the EC50 in series [4] was > 53 µM (inactive).

In the case of `CCOC(=O)C1CCN(Cc2cccc(Oc3ccccc3)c2)CC1`, the IC50 in series [3] is 342 µM (active). `COc1cccc(C(=O)Oc2c(Br)cc(Br)cc2/C=N/NC(=O)c2cc(C)[nH]n2)c1`: the EC50 in series [1] was 0.942 µM (active); in series [2], 8.01 µM (active). Besides, the AC50 in the series on INS1 is 3.11 µM (active).

`CCCNC1=NC(=O)N(C)C(=O)/C1=N/O`: the AC50 on Cytochrome P450 2C19 (read-out: AC50) is 28.2 µM (inconclusive); on Cytochrome P450 2D6 it was 39.8 µM (inconclusive). For the compound `C/C(Cn1nnc([N+](=O)[O-])n1)=N\NC(=O)c1ccccc1Cl`, the EC50 in series [1] is 0.47 µM (active); in series [2], > 60 µM (not active). The AC50 with INS1 was 10.5 µM (active). Consider `Brc1csc(/C=N\c2ccc3c(c2)OCCOCCOCCOCCO3)c1`, for which the IC50 in series [3] is 75.2 µM (active). The same measure, in the same setting: for `C=CCN1C(=O)CS/C1=N/c1ccc(O)cc1` the value was 25.8 µM (active).

For the compound `COc1ccccc1/C=N/OCc1cc(C(C)=O)ccc1OC`, the AC50 with INS1 is 44.6 µM (active).

In the case of `c1ccc(Nc2nc(-c3ccncc3)cs2)cc1`, the EC50 in series [1] was 0.544 µM (active); in series [2] it was > 60 µM (not active).
